Numbers after ± are expanded uncertainties.
Conditions: 101.33 kPa, Liquid; for mass density: Vibrating tube method; for viscosity: Falling or rolling sphere viscometry

Compound | mass density (293.15 K) | mass density (298.15 K) | mass density (303.15 K) | mass density (308.15 K) | mass density (313.15 K) | viscosity (293.15 K) | viscosity (298.15 K) | viscosity (303.15 K) | viscosity (308.15 K) | viscosity (313.15 K)
O [water] |  |  |  |  |  | 1.002 ± 0.06 mPa·s | 0.891 ± 0.06 mPa·s | 0.798 ± 0.06 mPa·s | 0.718 ± 0.06 mPa·s | 0.652 ± 0.06 mPa·s
CCCCO [butan-1-ol] | 809.77 ± 0.14 kg/m3 | 805.98 ± 0.14 kg/m3 | 802.08 ± 0.15 kg/m3 | 798.19 ± 0.15 kg/m3 | 794.36 ± 0.15 kg/m3 | 2.941 ± 0.064 mPa·s | 2.573 ± 0.063 mPa·s | 2.264 ± 0.062 mPa·s | 2.002 ± 0.062 mPa·s | 1.788 ± 0.061 mPa·s
CC(=O)[O-].Cn1cc[nH+]c1 [1-methylimidazolium acetate] | 1079.75 ± 0.29 kg/m3 | 1075.33 ± 0.29 kg/m3 | 1070.89 ± 0.29 kg/m3 | 1066.45 ± 0.28 kg/m3 | 1062 ± 0.28 kg/m3 | 8.196 ± 0.094 mPa·s | 6.926 ± 0.085 mPa·s | 5.913 ± 0.079 mPa·s | 5.069 ± 0.075 mPa·s | 4.395 ± 0.071 mPa·s

Second part, the compound after the results:

mass density (293.15 K) | mass density (298.15 K) | mass density (303.15 K) | mass density (308.15 K) | mass density (313.15 K) | viscosity (293.15 K) | viscosity (298.15 K) | viscosity (303.15 K) | viscosity (308.15 K) | viscosity (313.15 K) | Compound
789.48 ± 0.15 kg/m3 | 785.41 ± 0.15 kg/m3 | 780.65 ± 0.15 kg/m3 | 776.31 ± 0.15 kg/m3 | 772.08 ± 0.15 kg/m3 |  |  |  |  |  | CCO [ethanol]
791.22 ± 0.15 kg/m3 | 786.52 ± 0.15 kg/m3 | 781.81 ± 0.15 kg/m3 | 777.06 ± 0.15 kg/m3 | 772.27 ± 0.15 kg/m3 | 0.588 ± 0.06 mPa·s | 0.551 ± 0.06 mPa·s | 0.517 ± 0.06 mPa·s | 0.486 ± 0.06 mPa·s | 0.46 ± 0.06 mPa·s | CO [methanol]
803.58 ± 0.15 kg/m3 | 799.61 ± 0.15 kg/m3 | 795.6 ± 0.15 kg/m3 | 791.51 ± 0.15 kg/m3 | 787.39 ± 0.15 kg/m3 | 2.206 ± 0.062 mPa·s | 1.976 ± 0.062 mPa·s | 1.737 ± 0.061 mPa·s | 1.548 ± 0.061 mPa·s | 1.383 ± 0.061 mPa·s | CCCO [propan-1-ol]

From the NIST ThermoML archive (doi:10.1016/j.jct.2012.01.013)
